Results published in ChEMBL document CHEMBL1149602, “Impaired mutagenic activities of MPDP(+) (1-methyl-4-phenyl-2,3-dihydropyridinium) and MPP(+) (1-methyl-4-phenylpyridinium) due to their interactions with methylxanthines” (2007).

Assays:
Format in all cases: functional
Vibrio harveyi [1] = experiment: Effect on 1-methyl-4-phenyl-2,3-dihydropyridinium-induced mutagenicity in Vibrio harveyi BB7XM assessed as number of neomycin-resistant mutants at 10 uM
Vibrio harveyi [2] = experiment: Effect on 1-methyl-4-phenyl-2,3-dihydropyridinium-induced mutagenicity in Vibrio harveyi BB7XM assessed as number of neomycin-resistant mutants at 100 uM
Vibrio harveyi [3] = experiment: Effect on 1-methyl-4-phenyl-2,3-dihydropyridinium-induced mutagenicity in Vibrio harveyi BB7XM assessed as number of neomycin-resistant mutants at 500 uM
Vibrio harveyi [4] = experiment: Effect on 1-methyl-4-phenyl-2,3-dihydropyridinium-induced mutagenicity in Vibrio harveyi BB7XM assessed as number of neomycin-resistant mutants at 1000 uM
Vibrio harveyi [5] = experiment: Effect on 1-methyl-4-phenylpyridinium-induced mutagenicity in Vibrio harveyi BB7XM assessed as number of neomycin-resistant mutants at 10 uM
Vibrio harveyi [6] = experiment: Effect on 1-methyl-4-phenylpyridinium-induced mutagenicity in Vibrio harveyi BB7XM assessed as number of neomycin-resistant mutants at 100 uM
Vibrio harveyi [7] = experiment: Effect on 1-methyl-4-phenylpyridinium-induced mutagenicity in Vibrio harveyi BB7XM assessed as number of neomycin-resistant mutants at 500 uM
Vibrio harveyi [8] = experiment: Effect on 1-methyl-4-phenylpyridinium-induced mutagenicity in Vibrio harveyi BB7XM assessed as number of neomycin-resistant mutants at 1000 uM

| Compound | Activity (Vibrio harveyi [1]) | Activity (Vibrio harveyi [2]) | Activity (Vibrio harveyi [3]) | Activity (Vibrio harveyi [4]) | Activity (Vibrio harveyi [5]) | Activity (Vibrio harveyi [6]) | Activity (Vibrio harveyi [7]) | Activity (Vibrio harveyi [8]) |
| --- | --- | --- | --- | --- | --- | --- | --- | --- |
| Cn1c(=O)c2c(ncn2C)n(C)c1=O [CAFFEINE] | 293 | 70 | 51 | 47 | 103 | 50 | 31 | 7 |
| CC(=O)CCCCn1c(=O)c2c(ncn2C)n(C)c1=O [PENTOXIFYLLINE] | 278 | 143 | 77 | 51 | 116 | 78 | 52 | 24 |
